ChEMBL document CHEMBL3864167, “Structure-Activity Relationship, Drug Metabolism and Pharmacokinetics Properties Optimization, and in Vivo Studies of New Brain Penetrant Triple T-Type Calcium Channel Blockers” (J Med Chem, 2016)

Legend:
[1] = biological target: Voltage-dependent T-type calcium channel subunit alpha-1G (Homo sapiens, UniProt O43497); assay: Channel blocking activity at recombinant human CaV 3.1 channel expressed in HEK293 cells assessed as inhibition of Ca2+ flux preincubated for 3 mins followed by CaCl2 addition by fluo-4 dye-based FLIPR assay; assay type: cell-based
[2] = biological target: Voltage-dependent T-type calcium channel subunit alpha-1H (Homo sapiens, UniProt O95180); assay: Channel blocking activity at recombinant human CaV 3.2 channel expressed in HEK293 cells assessed as inhibition of Ca2+ flux preincubated for 3 mins followed by CaCl2 addition by fluo-4 dye-based FLIPR assay; assay type: cell-based
[3] = biological target: Voltage-dependent T-type calcium channel subunit alpha-1I (Homo sapiens, UniProt Q9P0X4); assay: Channel blocking activity at recombinant human CaV 3.3 channel expressed in HEK293 cells assessed as inhibition of Ca2+ flux preincubated for 3 mins followed by CaCl2 addition by fluo-4 dye-based FLIPR assay; assay type: cell-based
[4] = Intrinsic clearance in human liver microsomes at 1 uM up to 15 mins in presence of NADPH by LC-MS-MS analysis; assay type: ADME; conditions: read-out: CLH

Voltage-dependent T-type calcium channel subunit alpha-1I, sequence (Q9P0X4 whole entry): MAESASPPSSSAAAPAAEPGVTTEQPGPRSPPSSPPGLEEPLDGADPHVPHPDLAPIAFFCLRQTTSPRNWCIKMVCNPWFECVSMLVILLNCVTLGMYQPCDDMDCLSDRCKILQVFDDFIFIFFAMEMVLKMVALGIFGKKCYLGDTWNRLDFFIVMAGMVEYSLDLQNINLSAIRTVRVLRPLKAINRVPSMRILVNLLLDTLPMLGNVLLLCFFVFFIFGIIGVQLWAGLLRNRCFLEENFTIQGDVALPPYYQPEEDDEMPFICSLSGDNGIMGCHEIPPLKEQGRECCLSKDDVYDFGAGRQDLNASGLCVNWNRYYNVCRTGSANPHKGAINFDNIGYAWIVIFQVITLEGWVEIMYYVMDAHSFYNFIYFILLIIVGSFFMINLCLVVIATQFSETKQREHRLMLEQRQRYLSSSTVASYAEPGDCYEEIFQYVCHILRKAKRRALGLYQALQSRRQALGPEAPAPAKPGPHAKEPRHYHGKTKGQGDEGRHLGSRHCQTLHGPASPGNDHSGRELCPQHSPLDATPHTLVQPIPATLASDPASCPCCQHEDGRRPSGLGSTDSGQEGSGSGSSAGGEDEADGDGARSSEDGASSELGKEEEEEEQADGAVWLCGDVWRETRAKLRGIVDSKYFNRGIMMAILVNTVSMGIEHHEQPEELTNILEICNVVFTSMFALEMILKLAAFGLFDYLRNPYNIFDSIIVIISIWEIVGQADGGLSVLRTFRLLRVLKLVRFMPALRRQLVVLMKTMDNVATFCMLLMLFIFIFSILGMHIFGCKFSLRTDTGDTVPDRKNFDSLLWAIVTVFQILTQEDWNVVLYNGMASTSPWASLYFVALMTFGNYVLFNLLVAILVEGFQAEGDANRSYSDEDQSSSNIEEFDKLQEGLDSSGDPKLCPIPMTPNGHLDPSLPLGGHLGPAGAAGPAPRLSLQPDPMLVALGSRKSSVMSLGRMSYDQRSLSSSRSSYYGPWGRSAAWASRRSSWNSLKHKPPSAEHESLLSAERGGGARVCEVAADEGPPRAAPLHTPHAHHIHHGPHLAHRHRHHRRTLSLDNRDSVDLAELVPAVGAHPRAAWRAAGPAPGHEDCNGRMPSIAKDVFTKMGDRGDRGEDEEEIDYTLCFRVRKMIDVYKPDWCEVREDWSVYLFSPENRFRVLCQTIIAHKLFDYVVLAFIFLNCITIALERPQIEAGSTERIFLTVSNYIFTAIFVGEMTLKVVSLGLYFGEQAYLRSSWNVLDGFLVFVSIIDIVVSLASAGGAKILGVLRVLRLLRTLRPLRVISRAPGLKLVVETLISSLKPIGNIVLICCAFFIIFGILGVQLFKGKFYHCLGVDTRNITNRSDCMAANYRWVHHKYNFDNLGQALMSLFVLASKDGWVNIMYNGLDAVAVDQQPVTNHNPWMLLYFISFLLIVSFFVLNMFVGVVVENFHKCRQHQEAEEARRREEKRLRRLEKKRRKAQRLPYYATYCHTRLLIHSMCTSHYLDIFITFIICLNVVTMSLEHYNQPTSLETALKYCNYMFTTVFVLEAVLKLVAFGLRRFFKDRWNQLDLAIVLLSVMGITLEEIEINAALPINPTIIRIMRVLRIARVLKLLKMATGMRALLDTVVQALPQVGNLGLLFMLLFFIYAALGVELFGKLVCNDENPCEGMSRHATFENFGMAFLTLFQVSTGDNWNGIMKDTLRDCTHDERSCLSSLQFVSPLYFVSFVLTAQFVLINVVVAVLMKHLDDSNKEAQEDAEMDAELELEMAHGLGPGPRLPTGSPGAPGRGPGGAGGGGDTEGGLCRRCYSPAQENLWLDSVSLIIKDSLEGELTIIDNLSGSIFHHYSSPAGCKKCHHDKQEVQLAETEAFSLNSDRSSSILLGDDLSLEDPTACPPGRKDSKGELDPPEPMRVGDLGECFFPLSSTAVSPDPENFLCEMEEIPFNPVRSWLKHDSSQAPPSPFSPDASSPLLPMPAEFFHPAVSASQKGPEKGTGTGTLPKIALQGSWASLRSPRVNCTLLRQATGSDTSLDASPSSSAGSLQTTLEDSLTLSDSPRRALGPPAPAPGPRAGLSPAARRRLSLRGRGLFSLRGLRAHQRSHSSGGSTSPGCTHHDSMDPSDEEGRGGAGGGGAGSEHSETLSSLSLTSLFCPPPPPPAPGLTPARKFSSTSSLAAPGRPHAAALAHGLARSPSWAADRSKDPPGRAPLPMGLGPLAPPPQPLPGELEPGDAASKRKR
Voltage-dependent T-type calcium channel subunit alpha-1G, sequence (O43497 whole entry): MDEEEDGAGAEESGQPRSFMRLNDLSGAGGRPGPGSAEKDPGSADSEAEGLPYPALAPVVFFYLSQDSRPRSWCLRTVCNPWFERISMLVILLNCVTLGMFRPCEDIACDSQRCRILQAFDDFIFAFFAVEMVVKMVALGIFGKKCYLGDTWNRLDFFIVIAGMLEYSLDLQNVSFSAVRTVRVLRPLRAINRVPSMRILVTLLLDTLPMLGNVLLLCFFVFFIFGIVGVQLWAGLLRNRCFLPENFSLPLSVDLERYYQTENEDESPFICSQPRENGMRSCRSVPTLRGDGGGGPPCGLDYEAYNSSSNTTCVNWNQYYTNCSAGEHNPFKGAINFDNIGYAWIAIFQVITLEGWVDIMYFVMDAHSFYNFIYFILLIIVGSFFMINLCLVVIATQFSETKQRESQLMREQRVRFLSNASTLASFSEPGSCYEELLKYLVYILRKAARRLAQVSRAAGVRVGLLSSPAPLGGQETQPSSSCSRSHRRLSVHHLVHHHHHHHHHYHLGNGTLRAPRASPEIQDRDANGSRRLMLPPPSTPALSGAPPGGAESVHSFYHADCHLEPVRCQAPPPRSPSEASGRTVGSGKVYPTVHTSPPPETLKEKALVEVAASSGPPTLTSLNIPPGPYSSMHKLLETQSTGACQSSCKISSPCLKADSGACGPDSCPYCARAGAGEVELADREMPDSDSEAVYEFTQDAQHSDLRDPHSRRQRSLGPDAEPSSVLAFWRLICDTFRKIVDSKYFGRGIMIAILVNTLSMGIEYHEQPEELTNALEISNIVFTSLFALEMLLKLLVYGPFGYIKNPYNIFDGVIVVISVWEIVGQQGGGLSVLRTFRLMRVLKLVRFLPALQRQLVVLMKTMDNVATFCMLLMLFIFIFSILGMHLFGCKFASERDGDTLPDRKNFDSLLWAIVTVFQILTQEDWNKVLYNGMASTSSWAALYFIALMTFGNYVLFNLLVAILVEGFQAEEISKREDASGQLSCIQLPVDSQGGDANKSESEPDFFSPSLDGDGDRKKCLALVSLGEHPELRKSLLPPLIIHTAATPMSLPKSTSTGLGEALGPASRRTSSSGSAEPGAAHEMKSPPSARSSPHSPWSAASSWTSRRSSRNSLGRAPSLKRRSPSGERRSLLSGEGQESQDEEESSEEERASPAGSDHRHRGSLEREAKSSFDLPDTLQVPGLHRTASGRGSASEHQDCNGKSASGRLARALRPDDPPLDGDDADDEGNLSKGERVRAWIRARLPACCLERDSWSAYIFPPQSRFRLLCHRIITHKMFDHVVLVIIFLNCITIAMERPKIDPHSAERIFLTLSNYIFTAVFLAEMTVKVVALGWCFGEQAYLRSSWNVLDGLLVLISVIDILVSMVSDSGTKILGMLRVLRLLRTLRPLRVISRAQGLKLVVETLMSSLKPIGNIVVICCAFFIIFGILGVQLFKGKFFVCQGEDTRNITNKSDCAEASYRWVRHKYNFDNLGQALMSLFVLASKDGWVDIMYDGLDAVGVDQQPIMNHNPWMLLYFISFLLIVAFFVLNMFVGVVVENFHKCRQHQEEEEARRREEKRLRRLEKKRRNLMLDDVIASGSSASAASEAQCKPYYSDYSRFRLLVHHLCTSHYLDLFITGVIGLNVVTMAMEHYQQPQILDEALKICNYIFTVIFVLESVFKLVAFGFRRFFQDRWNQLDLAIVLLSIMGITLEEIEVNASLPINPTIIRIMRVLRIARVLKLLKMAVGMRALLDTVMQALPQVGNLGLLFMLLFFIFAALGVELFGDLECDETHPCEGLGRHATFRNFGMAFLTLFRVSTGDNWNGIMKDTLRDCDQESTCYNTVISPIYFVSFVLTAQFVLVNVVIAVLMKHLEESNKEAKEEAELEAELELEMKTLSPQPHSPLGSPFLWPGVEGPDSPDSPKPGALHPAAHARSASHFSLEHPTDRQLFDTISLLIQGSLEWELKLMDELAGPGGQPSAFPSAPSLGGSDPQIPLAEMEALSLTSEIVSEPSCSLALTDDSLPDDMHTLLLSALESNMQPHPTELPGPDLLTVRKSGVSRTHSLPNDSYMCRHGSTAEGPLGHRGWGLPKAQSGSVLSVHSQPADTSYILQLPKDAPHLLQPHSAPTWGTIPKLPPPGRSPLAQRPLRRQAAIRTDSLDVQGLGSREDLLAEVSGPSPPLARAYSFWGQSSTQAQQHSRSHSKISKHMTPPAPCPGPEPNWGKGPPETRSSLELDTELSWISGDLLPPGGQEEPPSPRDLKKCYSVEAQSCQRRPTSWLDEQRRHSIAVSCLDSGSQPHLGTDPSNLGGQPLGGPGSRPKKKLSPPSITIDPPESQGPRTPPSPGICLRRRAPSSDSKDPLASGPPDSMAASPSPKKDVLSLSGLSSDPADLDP

SMILES	IC50 [1]	IC50 [2]	IC50 [3]	microsomal CLint at 1 µM [4]
C[C@@H]1CN(CC2CCCC2)c2ccccc2[C@H](C)N1C(=O)Nc1cccnc1 (racemic)	23 nM	62 nM	14 nM	1150 µL/min/mg
C[C@@H]1CN(Cc2cccc(F)c2)c2ccccc2[C@H](C)N1C(=O)Nc1cccnc1 (racemic)	8 nM	14 nM	5 nM	> 1250 µL/min/mg
C[C@@H]1CN(Cc2ccccc2)c2ncc(F)cc2[C@H](C)N1C(=O)NCc1ccccc1 (racemic)	65 nM	95 nM	15 nM	837 µL/min/mg
[2H]C([2H])(c1ccccc1)N1C[C@@H](C)N(C(=O)Nc2cccnc2)[C@@H](C)c2ccccc21 (racemic)	27 nM	25 nM	4 nM	1110 µL/min/mg
C[C@@H]1CN(Cc2ccccc2)c2c(F)cccc2[C@H](C)N1C(=O)Nc1cccnc1 (racemic)	178 nM	205 nM	17 nM	720 µL/min/mg
COc1cc2c(cc1F)N(Cc1ccccc1)C[C@@H](C)N(C(=O)Nc1cccnc1)[C@H]2C (racemic)	370 nM	414 nM	73 nM	
C[C@@H]1CN(Cc2ccccc2)c2cc(F)ccc2[C@H](C)N1C(=O)Nc1cccnc1 (racemic)	6 nM	12 nM	4 nM	> 1250 µL/min/mg
COc1ccc2c(c1)N(Cc1ccccc1)C[C@@H](C)N(C(=O)Nc1cccnc1)[C@H]2C (racemic)	627 nM	1600 nM	610 nM	649 µL/min/mg
CC(C)CCN1C[C@@H](C)N(C(=O)CCc2cccnc2)[C@@H](C)c2ccccc21 (racemic)	29 nM	62 nM	13 nM	412 µL/min/mg
C[C@@H]1CN(Cc2ccccc2)c2cccc(F)c2[C@H](C)N1C(=O)CCc1cccnc1 (racemic)	47 nM	52 nM	17 nM	562 µL/min/mg
C[C@@H]1CNc2ccccc2[C@H](C)N1C(=O)NCc1ccccc1 (racemic)	> 10000 nM	> 10700 nM	> 8600 nM	59 µL/min/mg
COc1cccc2c1N(Cc1ccccc1)C[C@@H](C)N(C(=O)Nc1cccnc1)[C@H]2C (racemic)	> 5300 nM	> 6500 nM	> 9000 nM	
O=C(NCc1ccccc1)N1CCN(Cc2ccccc2)c2ccccc2C1	305 nM	392 nM	214 nM	> 1250 µL/min/mg
C[C@@H]1CN(Cc2ccccc2)c2ccccc2[C@H](C)N1C(=O)CN1CCOCC1 (racemic)	36 nM	51 nM	7 nM	> 1250 µL/min/mg
C[C@@H]1CN(Cc2ccccc2)c2cc(C#N)ccc2[C@H](C)N1C(=O)Nc1cccnc1 (racemic)	582 nM	860 nM	308 nM	418 µL/min/mg
C[C@@H]1CN(Cc2cnc(C(F)(F)F)s2)c2ccccc2[C@H](C)N1C(=O)CCc1cccnc1 (racemic)	40 nM	30 nM	13 nM	332 µL/min/mg
C[C@@H]1CN(Cc2cccc(F)c2F)c2cnccc2[C@H](C)N1C(=O)NCc1ccccc1 (racemic)	38 nM	72 nM	13 nM	212 µL/min/mg
C[C@@H]1CN(Cc2cnc(C(F)(F)F)s2)c2ccccc2[C@H](C)N1C(=O)NCc1ccccc1 (racemic)	13 nM	15 nM	6 nM	> 1250 µL/min/mg
C[C@@H]1CN(Cc2ccccc2)c2ccccc2[C@H](C)N1CC1CCOCC1 (racemic)	6110 nM	7410 nM	> 10000 nM	
C[C@@H]1CN(Cc2ccccc2)c2ccccc2[C@H](C)N1C(=O)CCc1cccnc1 (racemic)	31 nM	38 nM	10 nM	> 1250 µL/min/mg
C[C@@H]1CN(Cc2ccccc2)c2cc(S(C)(=O)=O)ccc2[C@H](C)N1C(=O)Nc1cccnc1 (racemic)	> 10000 nM	> 8000 nM	> 10000 nM	
C[C@@H]1CN(Cc2ccccc2)c2ccccc2[C@H](C)N1S(=O)(=O)c1cn(C)cn1 (racemic)	576 nM	1490 nM	210 nM	
C[C@@H]1CN(CCOC(C)(C)C)c2ccccc2[C@H](C)N1C(=O)NCc1ccccc1 (racemic)	35 nM	44 nM	12 nM	
C[C@@H]1CN(Cc2ccccc2)c2cncnc2[C@H](C)N1C(=O)NCc1ccccc1 (racemic)	> 8500 nM	> 6400 nM	1000 nM	
Cc1ccc2c(c1)N(Cc1ccccc1)C[C@@H](C)N(C(=O)Nc1cccnc1)[C@H]2C (racemic)	227 nM	231 nM	74 nM	
C[C@@H]1CN(Cc2ccccc2)c2cc(Br)ccc2[C@H](C)N1C(=O)Nc1cccnc1 (racemic)	286 nM	428 nM	137 nM	
C[C@@H]1CN(S(=O)(=O)c2ccccc2)c2ccccc2[C@H](C)N1C(=O)Nc1cccnc1 (racemic)	> 10000 nM	4690 nM	1810 nM	
C[C@@H]1CN(Cc2ccccc2)c2c(cnn2C)[C@H](C)N1C(=O)NCc1ccccc1 (racemic)	> 9400 nM	> 7300 nM	> 10000 nM	
COc1cccc2c1[C@H](C)N(C(=O)Nc1cccnc1)[C@H](C)CN2Cc1ccccc1 (racemic)	188 nM	305 nM	130 nM	

Second part, the molecule after the results:

IC50 [1]	IC50 [2]	IC50 [3]	microsomal CLint at 1 µM [4]	SMILES
420 nM	841 nM	473 nM		C[C@@H]1CN(Cc2ccccc2)c2ccccc2[C@H](C)N1C(=O)OCc1ccccc1 (racemic)
1140 nM	695 nM	206 nM		C[C@@H]1CN(Cc2ccccc2)c2nnccc2[C@H](C)N1C(=O)NCc1ccccc1 (racemic)
754 nM	922 nM	139 nM	> 1250 µL/min/mg	CCN1C[C@@H](C)N(C(=O)NCc2ccccc2)[C@@H](C)c2ccccc21 (racemic)
7 nM	6 nM	4 nM	> 1250 µL/min/mg	C[C@@H]1CN(Cc2ccccc2)c2nc(F)ccc2[C@H](C)N1C(=O)NCc1ccccc1 (racemic)
53 nM	49 nM	10 nM	> 1250 µL/min/mg	C[C@@H]1CN(Cc2cccnc2F)c2ccccc2[C@H](C)N1C(=O)NCc1ccccc1 (racemic)
193 nM	241 nM	164 nM	> 1250 µL/min/mg	C[C@H]1c2ccccc2N(Cc2ccccc2)CCN1C(=O)NCc1ccccc1 (racemic)
18 nM	28 nM	33 nM	1240 µL/min/mg	Cc1ccc2c(n1)N(Cc1ccccc1)C[C@@H](C)N(C(=O)NCc1ccccc1)[C@H]2C (racemic)
262 nM	358 nM	641 nM		C[C@@H]1c2ccccc2N(Cc2ccccc2)C[C@H](C)N1C(=O)NCc1ccccc1
293 nM	464 nM	1000 nM		C[C@H]1c2ccccc2N(Cc2ccccc2)[C@@H](C)CN1C(=O)NCc1ccccc1 (racemic)
476 nM	500 nM	95 nM		C[C@@H]1CN(Cc2cccnc2)c2ccccc2[C@H](C)N1C(=O)NCc1ccccc1 (racemic)
220 nM	224 nM	55 nM	> 1250 µL/min/mg	C[C@@H]1CN(Cc2ccccc2)c2cnc(Cl)cc2[C@H](C)N1C(=O)NCc1ccccc1 (racemic)
8 nM	14 nM	6 nM	> 1250 µL/min/mg	COc1ccc(CNC(=O)N2[C@H](C)CN(Cc3ccccc3)c3ccccc3[C@@H]2C)cc1 (racemic)
597 nM	212 nM	91 nM		C[C@@H]1CN(Cc2ccccc2)c2cccnc2[C@H](C)N1C(=O)NCc1ccccc1 (racemic)
> 7260 nM	> 8580 nM	1710 nM		C[C@@H]1CN(Cc2ccncc2)c2ccccc2[C@H](C)N1C(=O)NCc1ccccc1 (racemic)
6280 nM	> 11000 nM	> 8740 nM		C[C@@H]1CN(Cc2ccccc2)c2ccncc2[C@H](C)N1C(=O)NCc1ccccc1 (racemic)
457 nM	835 nM	892 nM		C[C@@H]1CN(Cc2ccccc2)c2ccccc2[C@H](C)N1C(=O)N(C)Cc1ccccc1 (racemic)
211 nM	198 nM	326 nM		C[C@@H]1CN(C(=O)NCc2ccccc2)[C@@H](C)c2ccccc2N1Cc1ccccc1 (racemic)
6070 nM	> 11500 nM	> 10000 nM		C[C@@H]1CN(C(=O)c2ccccc2)c2ccccc2[C@H](C)N1C(=O)NCc1ccccc1 (racemic)
5 nM	9 nM	4 nM		C[C@@H]1CN(Cc2cccc(F)c2F)c2ccccc2[C@H](C)N1C(=O)NCc1ccccc1 (racemic)
605 nM	479 nM	97 nM		C[C@@H]1CN(Cc2ccccn2)c2ccccc2[C@H](C)N1C(=O)NCc1ccccc1 (racemic)
5 nM	17 nM	2 nM		C[C@@H]1CN(Cc2ccccc2)c2ccccc2[C@H](C)N1C(=O)NCc1ccccc1
> 10000 nM	> 11000 nM	> 10000 nM		C[C@@H]1c2ccncc2N(Cc2ccccc2)C[C@H](C)N1C(=O)NCc1ccccc1
